From patent EP0487095B1, “Pyridyl derivatives, medicines containing these compounds and processes for their preparation” (Dr. Karl Thomae GmbH, priority 1990, dated 1992)
pEC50, pIC50: −log10 of the molar value.

Assays:
Thromboxansynthetase = target: T1, Thromboxansynthetase (Homo sapiens, UniProt P24557); assay: Inhibition of thromboxane synthetase (TXB2 formation from 14C-arachidonic acid in platelet suspension); assay type: cell-based; conditions: 10 min preincubation at room temperature, read-out: Hemmung der Thromboxansynthetase IC₅₀
T1 construct: Aliquots der erhaltenen Plättchensuspension werden mit der Testsubstanz bzw; Lösungsmittel als Kontrolle 10 Minuten bei Raumtemperatur inkubiert; endogenous in cells; host or cells: gel-filtered human platelets from venous blood
T1 sequence (P24557 1-533): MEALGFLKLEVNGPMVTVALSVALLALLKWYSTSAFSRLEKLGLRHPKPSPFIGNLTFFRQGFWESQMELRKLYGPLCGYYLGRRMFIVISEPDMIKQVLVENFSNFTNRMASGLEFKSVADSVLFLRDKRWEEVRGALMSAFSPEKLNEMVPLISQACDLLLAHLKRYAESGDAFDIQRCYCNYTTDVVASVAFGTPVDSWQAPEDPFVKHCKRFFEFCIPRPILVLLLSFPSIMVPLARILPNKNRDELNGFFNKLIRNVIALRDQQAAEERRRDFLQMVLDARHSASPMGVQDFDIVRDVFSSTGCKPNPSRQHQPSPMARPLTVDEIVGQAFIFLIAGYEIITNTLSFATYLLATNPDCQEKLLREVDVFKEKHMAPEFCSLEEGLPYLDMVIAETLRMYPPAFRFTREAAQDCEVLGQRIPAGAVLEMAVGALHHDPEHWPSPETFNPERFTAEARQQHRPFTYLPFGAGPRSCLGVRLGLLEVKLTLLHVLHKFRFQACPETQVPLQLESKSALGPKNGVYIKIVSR
Procedure: 3. Bestimmung der Hemmwirkung auf die Thromboxansynthetase
Venöses Humanblut wird mit 13 mM Na3-Citrat antikoaguliert und 10 Minuten bei 170 x g zentrifugiert. Das überstehende plättchenreiche Plasma wird zur Entfernung der Plasmaproteine über eine Sepharose-2B-Säule gegeben. Aliquots der erhaltenen Plättchensuspension werden mit der Testsubstanz bzw. Lösungsmittel als Kontrolle 10 Minuten bei Raumtemperatur inkubiert und nach Zugabe 14C-markierter Arachidonsäure die Inkubation weitere 10 Minuten fortgesetzt. Nach Abstoppen mit 50 µl Zitronensäure wird 3 x mit 500 µl Essigester extrahiert und die vereinigten Extrakte mit Stickstoff abgeblasen. Der Rückstand wird in Essigester aufgenommen, auf DC-Folie aufgetragen und mit Chloroform:Methanol:Eisessig:Wasser (90:8:1:0,8, v/v/v/v) getrennt. Die getrockneten DC-Folien werden 3 Tage auf Röntgenfilm gelegt, die Autoradiogramme entwickelt und mit ihrer Hilfe die aktiven Zonen auf der Folie markiert. Nach Ausschneiden wird die Aktivität im Szintillationszähler bestimmt und die Hemmung der TXB2-Bildung berechnet. Die IC₅₀ wird durch lineare Interpolation bestimmt.

Thromboxan = target: T2, Thromboxan (Homo sapiens, UniProt P21731); assay: Thromboxane-antagonistic effect (displacement of 3H-labelled ligand from platelet suspension); assay type: binding; conditions: 60 min at room temperature, read-out: Thromboxanantagonistische Wirkung IC₅₀
T2 construct: Aliquote der erhaltenen Plättchensuspension werden mit der Testsubstanz, dem Liganden (3H-markiert) und einem Marker (14C-markiert) 60 Minuten bei Raumtemperatur inkubiert; endogenous in cells; host or cells: gel-filtered human platelets from venous blood
T2 sequence (P21731 1-343): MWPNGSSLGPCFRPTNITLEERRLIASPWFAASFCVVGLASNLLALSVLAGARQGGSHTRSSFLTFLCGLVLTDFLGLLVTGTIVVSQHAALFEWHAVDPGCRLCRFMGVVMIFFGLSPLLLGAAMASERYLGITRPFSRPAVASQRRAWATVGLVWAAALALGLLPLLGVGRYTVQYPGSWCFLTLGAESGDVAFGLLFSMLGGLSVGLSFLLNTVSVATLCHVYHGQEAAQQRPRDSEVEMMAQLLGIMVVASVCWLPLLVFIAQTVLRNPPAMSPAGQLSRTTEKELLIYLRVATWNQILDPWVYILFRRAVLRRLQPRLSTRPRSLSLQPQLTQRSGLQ
Procedure: 2. Thromboxanantagonistische Wirkung
Venöses Humanblut wird mit 13 mM Na3-Citrat antikoaguliert und 10 Minuten bei 170 x g zentrifugiert. Das überstehende plättchenreiche Plasma wird zur Entfernung der Plasmaproteine über eine Sepharose-2B-Säule gegeben. Aliquote der erhaltenen Plättchensuspension werden mit der Testsubstanz, dem Liganden (3H-markiert) und einem Marker (14C-markiert) 60 Minuten bei Raumtemperatur inkubiert und danach 20 Sekunden bei 10 000 x g abzentrifugiert. Der Überstand wird abgezogen und das Pellet in NaOH gelöst. Die 3H-Aktivität im Überstand entspricht dem freien Liganden, 14C ergibt die Konzentration des Markers. 3H im Pellet entspricht dem gebundenen Liganden, 14C wird zur Korrektur für Ligand im Extrazellulärraum verwendet. Aus den Bindungswerten für verschiedene Konzentrationen der Testsubstanz wird nach Iteration die Verdrängungskurve ermittelt und die IC₅₀ bestimmt.

Thrombozytenaggregation = assay: Collagen-induced platelet aggregation (Born and Cross) in platelet-rich plasma; assay type: cell-based; conditions: Homo sapiens; platelet-rich plasma of healthy subjects, 10 min preincubation at 37°C, 50% change of optical density; read-out: Hemmung der collagen-induzierten Aggregation EC₅₀
Description: 1. Antithrombotische Wirkung
Die Thrombozytenaggregation wird nach der Methode von Born und Cross (J. Physiol. 170, 397 (1964)) in plättchenreichem Plasma gesunder Versuchspersonen gemessen. Zur Gerinnungshemmung wird das Blut mit Natriumcitrat 3,14 % im Volumenverhältnis 1:10 versetzt.
Collagen-induzierte Aggregation
Der Verlauf der Abnahme der optischen Dichte der Plättchensuspension wird nach Zugabe der aggregationsauslösenden Substanz photometrisch gemessen und registriert. Aus dem Neigungswinkel der Dichtekurve wird auf die Aggregationsgeschwindigkeit geschlossen. Der Punkt der Kurve, bei dem die größte Lichtdurchlässigkeit vorliegt, dient zur Berechnung der "optical density".
Die Collagen-Menge wird möglichst gering gewählt, aber doch so, daß sich eine irreversibel verlaufende Reaktionskurve ergibt. Verwendet wird das handelsübliche Collagen der Firma Hormonchemie, München. Vor der Collagen-Zugabe wird das Plasma jeweils 10 Minuten mit der Substanz bei 37°C inkubiert.
Aus den erhaltenen Meßzahlen wird graphisch eine EC₅₀ bestimmt, die sich auf eine 50%ige Änderung der "optical density" im Sinne einer Aggregationshemmung bezieht.

SMILES | pIC50 (Thromboxansynthetase) | pIC50 (Thromboxan) | pEC50 (Thrombozytenaggregation)
CN(C(=S)Nc1ccc(Cl)cc1Cl)c1cccc(/C(=C\CCCC(=O)O)c2cccnc2)c1 [D, 5E-6-[3-(3-(2,4-Dichlorphenyl)-1-methylthioureido)-phenyl]-6-(3-pyridyl)-hex-5-ensäure] | 7.05 | 7.77 | 5.92
O=C(O)CCC/C=C(/c1cccnc1)c1cccc(NC(=O)CCc2ccc(Cl)cc2)c1 [B, 5E-6-[3-(3-(4-Chlorphenyl)-propionylamino)-phenyl]-6-(3-pyridyl)-hex-5-ensäure] | 8.40 | 8.10 | 5.66
O=C(O)CCCC=C(c1ccc(NC(=O)C2CC2c2ccc(Cl)cc2)cc1)c1cccnc1 (single isomer, unassigned; (-)) [A, (-)-5E-6-[4-(Z-2-(4-Chlorphenyl)-cyclopropyl-1-carboxamido)-phenyl]-6-(3-pyridyl)-hex-5-ensäure] | 8.40 | 8.40 | 6.30
O=C(O)CCC/C=C(/c1cccnc1)c1cccc(NC(=S)Nc2ccc(Cl)cc2)c1 [C, 5E-6-[3-(3-(4-Chlorphenyl)-thioureido)-phenyl]-6-(3-pyridyl)-hex-5-ensäure] | 7.49 | 7.92 | 6.10
